test system: trained panel of 4 to 8 people; test: Cooling intensity by trained panel, isointensity method versus menthol; type: in vivo; settings: aqueous solutions tasted, compared to aqueous solution of reference menthol at 2 ppm
Procedure: The cooling intensity of the compounds was determined by a trained panel of 4 to 8 people according to the isointensity method as described below.
Aqueous solutions of various concentrations of a chemical compound were prepared and tasted. The cooling intensity of each solution was compared to that of an aqueous solution of the reference compound at 2 ppm, namely menthol.

Row | SMILES | rel. cooling intensity
1 | COc1ccc(C(=O)NC(C)(C(C)C)C(C)C)cc1 [Ex. 4, N-1-methyl-1-isopropylisobutyl anisamide] | 1.1
2 | COC(=O)c1ccc(C(=O)NC(C)(C(C)C)C(C)C)cc1 [Ex. 5C, N-(1-methyl-1-isopropyl-isobutyl) O-methylterephthalamate] | 1.7
3 | COC(=O)c1ccc(C(=O)NC2CC(C)CCC2C(C)C)cc1 (stereo not shown) [Ex. 5D, N-(3-p-menthyl) O-methylterephthalamate] | 2.5
4 | CCC(CC)(CC)NC(=O)c1ccc(-c2ccccc2)cc1 [Ex. 5E, N-(1,1-diethylpropyl)biphenyl-4-carboxamide] | 1.2
5 | CC(C)C(C)(NC(=O)c1ccc(-c2ccccc2)cc1)C(C)C [Ex. 5F, N-(1-methyl-1-isopropyl-isobutyl) biphenyl-4-carboxamide] | 1.5
6 | CC(C)C(NC(=O)c1ccc2c(c1)OCO2)C(C)C [Ex. 5H, N-(1-isopropyl-isobutyl)benzo[1,3]dioxole-5-carboxamide] | 0.9
7 | CC(C)C(C)(NC(=O)c1ccc2c(c1)OCO2)C(C)C [Ex. 5K, N-(1-methyl-1-isopropyl-isobutyl)benzo[1,3]dioxole-5-carboxamide] | 0.9
8 | CCC(CC)(CC)NC(=O)c1ccc2c(c1)OCO2 [Ex. 5L, N-(1,1-diethylpropyl)benzo[1,3]dioxole-5-carboxamide] | 0.3
9 | CC1(C)C2CCC1(C)C(NC(=O)c1ccccc1)C2 (stereo not shown) [Ex. 5M, N-bornyl benzamide] | 0.6

test system: mouth; test: Application in mouthwash, cooling sensation in the mouth; type: in vivo; settings: 50 mL of 1% solution in alcohol per 1 liter mouthwash (also contains peppermint oil); 30 mL swished, gargled and spit out
Procedure: All the ingredients were mixed. 30 mL of obtained solution was put in the mouth, swished around, gargled and spit out.

Row | SMILES | cooling sensation in mouthwash
10 | COc1ccc(C(=O)NC(C)(C(C)C)C(C)C)cc1 [Ex. 4, N-1-methyl-1-isopropylisobutyl anisamide] | pleasant cooling sensation was felt in every area of the mouth

— US20080319055A1, “Cooling Compounds” (GIVAUDAN SA, priority 2005, published 2008)
